For one assay, the target named is T1, Btk (Homo sapiens, UniProt Q06187).
T1 construct: purified from insect cells as a full-length construct containing a N-terminal 6X-His tag; His6 (N); made in house; host or cells: insect cells (Method C)
The assay can be described thus: Btk in vitro inhibitory activity (one of Method A TR-FRET, Method B electrophoretic mobility shift, Method C radiometric filter binding). It is filed as biochemical. On the procedure:
Example 62a: Btk In Vitro Inhibitory Activity (Method A)
Btk kinase activity is determined using a time-resolved fluorescence resonance energy transfer (TR-FRET) methodology. Measurements are performed in a reaction volume of 50 μL using 96-well assay plates. […] The reaction is quenched by the addition of 1.2 equivalents of EDTA (relative to divalent cation) in 25 μL of 1× Lance buffer (Perkin-Elmer). Streptavidin-APC (Perkin-Elmer) and Eu-labeled p-Tyr100 antibody (Perkin-Elmer) in 1× Lance buffer are added in a 25 μL volume to give final concentrations of 100 nM and 2.5 nM, respectively, and the mixture is allowed to incubate for one hour. The TR-FRET signal is measured on a multimode plate reader with an excitation wavelength (λEx) of 330 nm and detection wavelengths (λEm) of 615 and 665 nm. Activity is determined by the ratio of the fluorescence at 665 nm to that at 615 nm. For each compound, enzyme activity is measured at various concentrations of compound. Negative control reactions are performed in the absence of inhibitor in replicates of six, and two no-enzyme controls are used to determine baseline fluorescence levels. Inhibition constants, Ki(app), were obtained using the program BatchKi (Kuzmic et al. (2000), Anal. Biochem. 286:45-50). IC50s are obtained according to the equation:
IC50={Ki(app)/(1+[ATP]/Km^ATP)}+[E]total/2;
For all kinases, [ATP]=Km^ATP, [Btk]total=0.5 nM and [Lck]total=6 nM.
Example 62b: Btk In Vitro Inhibitory Activity (Method B)
Kinase activity is measured in vitro using electrophoretic mobility shift assay. The kinase reactions are assembled in a total volume of 25 μL in 384 well plates. The reactions comprise: BTK enzyme (1 nM, N-terminal His6-tagged, recombinant, full-length, human BTK purified from baculovirus Sf21 insect cell system, 293HEK, or other suitable source), inhibitor, ATP, fluorescently labeled peptide substrate (1 μM, FAM-GEEPLYWSFPAKKK-NH2) in a reaction buffer composed of 100 mM HEPES, pH7.5, 5 mM MgCl2 1 mM DTT, 0.1% bovine serum albumin, 0.01% Triton X-100, and 1% DMSO. The reaction is incubated and is quenched by the addition of termination buffer (100 mM HEPES, pH 7.5, 0.01% Triton X-100, 30 mM EDTA). The terminated reactions are analyzed using a 12 channel LabChip® 3000 microfluidic detection instrument (Caliper Life Sciences). The enzymatic phosphorylation of the peptide results in a change in net charge, enabling electrophoretic separation of product from substrate peptide. As substrate and product peptides are separated, two peaks of fluorescence are observed. Change in the relative fluorescence intensity of the substrate and product peaks is the parameter measured, reflecting enzyme activity. In the presence of an inhibitor, the ratio between product and substrate is altered: the signal of the product decreases, while the signal of the substrate increases.
Activity in each sample is determined as the product to sum ratio (PSR):P/(S+P), where P is the peak height of the product peptide and S is the peak height of the substrate peptide. For each compound, enzyme activity is measured at various concentrations (12 concentrations of compound spaced by 3× dilution intervals). Negative control samples (0%—inhibition in the absence of inhibitor) and positive control samples (100%—inhibition, in the presence of 20 mM EDTA) are assembled in replicates of four and are used to calculate %—inhibition values for each inhibitor at each concentration. Percent inhibition (Pinh) is determined using following equation:
Pinh=(PSR0%−PSRinh)/(PSR0%−PSR100%)*100, where PSRinh is the product sum ratio in the presence of inhibitor, PSR0% is the average product sum ration in the absence of inhibitor and PSR100% is the average product sum ratio in 100%—inhibition control samples.
The IC50 values of inhibitors are determined by 4 parameter sigmoidal dose-response model fitting of the inhibition curves (Pinh versus inhibitor concentration) using XLfit 4 software. […]

The target of the next assay is T2, TEC (Homo sapiens, UniProt P42680).
T2 sequence (P42680 1-631): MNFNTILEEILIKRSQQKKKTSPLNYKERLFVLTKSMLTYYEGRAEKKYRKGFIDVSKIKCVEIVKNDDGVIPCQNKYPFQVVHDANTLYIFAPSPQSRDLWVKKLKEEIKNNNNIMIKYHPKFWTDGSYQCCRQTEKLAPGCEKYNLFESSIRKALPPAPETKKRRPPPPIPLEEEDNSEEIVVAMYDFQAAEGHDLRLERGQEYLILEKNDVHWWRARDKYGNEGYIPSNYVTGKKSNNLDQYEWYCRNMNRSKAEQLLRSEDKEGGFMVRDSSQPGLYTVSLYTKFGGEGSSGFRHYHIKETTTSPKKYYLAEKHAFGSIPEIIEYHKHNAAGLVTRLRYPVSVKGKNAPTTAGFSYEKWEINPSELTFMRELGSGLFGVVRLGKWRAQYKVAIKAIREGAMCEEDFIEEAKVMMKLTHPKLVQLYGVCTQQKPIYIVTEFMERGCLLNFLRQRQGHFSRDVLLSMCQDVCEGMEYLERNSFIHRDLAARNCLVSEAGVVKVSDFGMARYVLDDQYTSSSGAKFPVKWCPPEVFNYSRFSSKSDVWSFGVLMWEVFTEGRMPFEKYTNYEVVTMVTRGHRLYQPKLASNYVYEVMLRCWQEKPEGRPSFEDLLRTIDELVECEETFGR
Put plainly: Inhibition of a panel of kinases (in vitro HotSpot kinase assay, 33P-ATP, 1 μM ATP). It is filed as biochemical. Conditions: for TEC/Btk: ratio of TEC IC50 to Btk IC50 (selectivity). On the procedure: Example 63: Inhibition of a Panel of Kinases The degree of inhibition of a panel of kinases is determined using the in vitro HotSpot kinase assay (purified enzymes, ^33P-ATP, an appropriate substrate and 1 μM ATP).

Where [1] appears, read: wild-type Btk, read-out: Btk-WT IC50.
Where [2] appears, read: method is one of A, B or C, not stated which, read-out: IC50 values against Btk.

The structures appear in SMILES notation. Read-outs that look alike come from different tables or passages of the source.

The values that follow come from patent US20180194762A1 (Pharmacyclics LLC, priority 2017, published 2018).

T1 sequence (Q06187 whole entry): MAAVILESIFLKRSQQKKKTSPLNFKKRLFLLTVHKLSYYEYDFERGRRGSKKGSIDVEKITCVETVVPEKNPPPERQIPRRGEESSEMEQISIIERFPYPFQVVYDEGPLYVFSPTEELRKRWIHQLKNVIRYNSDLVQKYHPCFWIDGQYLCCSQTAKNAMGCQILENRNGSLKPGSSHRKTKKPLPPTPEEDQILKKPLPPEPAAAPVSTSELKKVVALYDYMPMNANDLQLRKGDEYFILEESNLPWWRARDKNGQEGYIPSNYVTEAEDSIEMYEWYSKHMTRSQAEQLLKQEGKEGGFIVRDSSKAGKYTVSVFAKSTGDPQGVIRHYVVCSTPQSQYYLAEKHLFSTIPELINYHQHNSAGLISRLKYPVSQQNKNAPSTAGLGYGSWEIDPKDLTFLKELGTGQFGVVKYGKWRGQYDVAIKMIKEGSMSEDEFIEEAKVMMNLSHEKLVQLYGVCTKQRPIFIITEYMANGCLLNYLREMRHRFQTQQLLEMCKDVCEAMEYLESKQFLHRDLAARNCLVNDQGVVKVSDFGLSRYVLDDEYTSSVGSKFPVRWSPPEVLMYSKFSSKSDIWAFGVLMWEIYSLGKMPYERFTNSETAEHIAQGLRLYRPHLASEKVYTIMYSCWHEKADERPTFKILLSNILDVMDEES

The IC50 is the midpoint of a concentration-inhibition curve. With `CN(C)C(=O)N1CC[C@@H](Nc2n[nH]c3nccc(-c4ccnc(N5CCn6c(cc7c6CC(C)(C)C7)C5=O)c4CO)c23)C1` [Example 299, (3R)-3-({4-[2-(7,7-dimethyl-1-oxo-1,3,4,6,7,8-hexahydro-2H-cyclopenta[4,5]pyrrolo[1,2-a]pyrazin-2-yl)-3-(hydroxymethyl)pyridin-4-yl]-1H-pyrazolo[3,4-b]pyridin-3-yl}amino)-N,N-dimethylpyrrolidine-1-carboxamide], the IC50 at Btk (setting [1]) came to 175 nM.
For `C=CC(=O)N1CC[C@@H](Nc2n[nH]c3nccc(-c4ccc(CNC(=O)c5ccccc5)c(F)c4)c23)C1` [Example 33, N-{[2-fluoro-4-(3-{[(3R)-1-(prop-2-enoyl)pyrrolidin-3-yl]amino}-1H-pyrazolo[3,4-b]pyridin-4-yl)phenyl]methyl}benzamide], the IC50 on Btk (setting [2]) was less than 10 nM.
Take `Cc1c(NC(=O)c2ccc(C(C)(C)C)cc2)cccc1-c1ccnc2[nH]nc(N[C@H]3CC[C@H](O)CC3)c12` [Compound 14, 4-(tert-butyl)-N-(3-(3-(((1r,4r)-4-hydroxycyclohexyl)amino)-1H-pyrazolo[3,4-b]pyridin-4-yl)-2-methylphenyl)benzamide]: the TEC/Btk on TEC is on record as 10.
Turning to `CC#CC(=O)N1CC[C@@H](Nc2n[nH]c3nccc(-c4ccc(CNC(=O)c5ccc(C(C)(C)C)cc5)c(F)c4)c23)C1` [Example 7, N-{[4-(3-{[(3R)-1-(but-2-ynoyl)pyrrolidin-3-yl]amino}-1H-pyrazolo[3,4-b]pyridin-4-yl)-2-fluorophenyl]methyl}-4-tert-butylbenzamide], the IC50 at Btk (setting [2]) is less than 10 nM.
Regarding `CC(C)(C)c1ccc(C(=O)Nc2ccc(-c3ccnc4[nH]nc(N[C@H]5CC[C@H](O)CC5)c34)cc2F)cc1` [Compound 15, 4-tert-butyl-N-[2-fluoro-4-(3-{[(1r,4r)-4-hydroxycyclohexyl]amino}-1H-pyrazolo[3,4-b]pyridin-4-yl)phenyl]benzamide], the TEC/Btk at TEC came out at 10.
`CC(C)(C)c1noc(C(=O)NCc2ccc(-c3ccnc4[nH]nc(N5CCCC5=O)c34)cc2F)n1` [Example 245, 3-tert-butyl-N-({2-fluoro-4-[3-(2-oxopyrrolidin-1-yl)-1H-pyrazolo[3,4-b]pyridin-4-yl]phenyl}methyl)-1,2,4-oxadiazole-5-carboxamide]: the IC50 at Btk (setting [1]) came to 145 nM.
With `CC(C)(C)c1nc(C(=O)NCc2ccc(-c3ccnc4[nH]nc(NC5CCNC5)c34)cc2F)no1` (stereo in doubt) [Example 50], the IC50 at Btk (setting [2]) was less than 10 nM.
On to `C[C@H]1CC[C@@H](Nc2n[nH]c3nccc(-c4ccc(CNC(=O)c5noc(C(C)(C)C)n5)cc4CO)c23)CN1C(=O)N(C)C` [Example 251, (2S,5R)-5-({4-[4-{[(5-tert-butyl-1,2,4-oxadiazole-3-carbonyl)amino]methyl}-2-(hydroxymethyl)phenyl]-1H-pyrazolo[3,4-b]pyridin-3-yl}amino)-N,N,2-trimethylpiperidine-1-carboxamide], for which the IC50 on Btk (setting [1]) was 64.6 nM.
`C=CC(=O)N1CC[C@@H](Nc2n[nH]c3nccc(-c4cccc(NC(=O)c5ccc(C(C)(C)C)cc5)c4C)c23)C1` [Example 9, 4-tert-butyl-N-[2-methyl-3-(3-{[(3R)-1-(prop-2-enoyl)pyrrolidin-3-yl]amino}-1H-pyrazolo[3,4-b]pyridin-4-yl)phenyl]benzamide]: the IC50 at Btk (setting [2]) was less than 10 nM.
Regarding `CN(C)C(=O)N1CC[C@@H](Nc2n[nH]c3nccc(-c4ccc(CNC(=O)c5coc(C6CCC6)n5)c(F)c4)c23)C1` [Example 328, 2-cyclobutyl-N-{[4-(3-{[(3R)-1-(dimethylcarbamoyl)pyrroli-din-3-yl]amino}-1H-pyrazolo[3,4-b]pyridin-4-yl)-2-fluorophenyl]methyl}-1,3-oxazole-4-carboxamide], at Btk (setting [1]), the IC50 came out at 509 nM.
On the same count and under the same terms, in the case of `C[C@@H](NC(=O)c1nc(C(C)(C)C)no1)c1ccc(-c2ccnc3[nH]nc(NC4CCCCC4)c23)cc1` [Example 202, 3-tert-butyl-N-[(1R)-1-{4-[3-(cyclohexylamino)-1H-pyrazolo[3,4-b]pyridin-4-yl]phenyl}ethyl]-1,2,4-oxadiazole-5-carboxamide] it was 31 nM; in that of `CN1C[C@@H](Nc2n[nH]c3nccc(-c4ccc(CNC(=O)c5nc(C(C)(C)C)no5)c(F)c4)c23)CC1=O` [Example 392, 3-tert-butyl-N-{[2-fluoro-4-(3-{[(3S)-1-methyl-5-oxopyrrolidin-3-yl]amino}-1H-pyrazolo[3,4-b]pyridin-4-yl)phenyl]methyl}-1,2,4-oxadiazole-5-carboxamide], 5.64 nM.
On the same count and under the same terms, in the case of `CC(C)(C)c1nc(C(=O)NCc2ccc(-c3ccnc4[nH]nc(OC5CCNC5)c34)cc2F)no1` (stereo not shown) [Example 269, 5-tert-butyl-N-[(2-fluoro-4-{3-[(pyrrolidin-3-yl)oxy]-1H-pyrazolo[3,4-b]pyridin-4-yl}phenyl)methyl]-1,2,4-oxadiazole-3-carboxamide] it was 26.3 nM.
As to `C[C@H](NC(=O)c1noc(C(C)(C)C)n1)c1ccc(-c2ccnc3[nH]nc(N[C@@H]4CCN(C(=O)N(C)C)C4)c23)cc1F` [Example 291, 5-tert-butyl-N-{(1S)-1-[4-(3-{[(3R)-1-(dimethylcarbamoyl)pyrroli-din-3-yl]amino}-1H-pyrazolo[3,4-b]pyridin-4-yl)-2-fluorophenyl]ethyl}-1,2,4-oxadiazole-3-carboxamide], on Btk (setting [1]), the IC50 came to 41.9 nM.
As to `C=CC(=O)N1CC[C@@H](Nc2n[nH]c3nccc(-c4ccnc(NC(=O)c5noc(C(C)(C)C)n5)c4C)c23)C1` [Example 288, 5-tert-butyl-N-[3-methyl-4-(3-{[(3R)-1-(prop-2-enoyl)pyrrolidin-3-yl]amino}-1H-pyrazolo[3,4-b]pyridin-4-yl)pyridin-2-yl]-1,2,4-oxadiazole-3-carboxamide], 9680 nM corresponded to half-maximal inhibition on TEC (HotSpot kinase assay, 1 μM ATP) (IC50).
Regarding `CC(C)(C)c1ccc(C(=O)Nc2cccc(-c3ccnc4[nH]nc(N[C@H]5CC[C@H](O)CC5)c34)c2)cc1` [Compound 13, 4-tert-butyl-N-[3-(3-{[(1r,4r)-4-hydroxycyclohexyl]amino}-1H-pyrazolo[3,4-b]pyridin-4-yl)phenyl]benzamide], at TEC, the TEC/Btk came out at 10.
